Active and inactive are the calls of the source. The calls are words filed in the database; no cut-off is given here.
Legend:
Rattus norvegicus [1] = species on record: Rattus norvegicus; test: Induction of insulin secretion in rat pancreatic islets at 0.1 to 3 uM in presence of 12 mM glucose; format: functional
[2] = Cardiotoxicity in anesthetized guinea pig; format: toxicity, Cavia porcellus
[3] = biological target: 3',5'-cyclic phosphodiesterase; test: Inhibition of human PDE; format: protein assay
Mus musculus = test: Antidiabetic activity in ob/ob mouse assessed as reduction in blood glucose level at 5 to 20 mg/kg, po administered 3 hrs prior to glucose challenge measured up to 2 hrs by OGTT; format: functional, organism-based
Homo sapiens [4] = species on record: Homo sapiens; test: Selectivity ratio of IC50 for human PDE1B to IC50 for human recombinant full length PDE10A expressed in sf9 cells
[5] = Clearance in rat at 10 mg/kg; format: ADME, organism-based; conditions: in vivo
Cytochrome P450 1A2 = biological target: T1, Cytochrome P450 1A2 (Homo sapiens, UniProt P05177); test: Inhibition of recombinant CYP1A2 (unknown origin); format: ADME
T1 sequence (P05177 whole entry): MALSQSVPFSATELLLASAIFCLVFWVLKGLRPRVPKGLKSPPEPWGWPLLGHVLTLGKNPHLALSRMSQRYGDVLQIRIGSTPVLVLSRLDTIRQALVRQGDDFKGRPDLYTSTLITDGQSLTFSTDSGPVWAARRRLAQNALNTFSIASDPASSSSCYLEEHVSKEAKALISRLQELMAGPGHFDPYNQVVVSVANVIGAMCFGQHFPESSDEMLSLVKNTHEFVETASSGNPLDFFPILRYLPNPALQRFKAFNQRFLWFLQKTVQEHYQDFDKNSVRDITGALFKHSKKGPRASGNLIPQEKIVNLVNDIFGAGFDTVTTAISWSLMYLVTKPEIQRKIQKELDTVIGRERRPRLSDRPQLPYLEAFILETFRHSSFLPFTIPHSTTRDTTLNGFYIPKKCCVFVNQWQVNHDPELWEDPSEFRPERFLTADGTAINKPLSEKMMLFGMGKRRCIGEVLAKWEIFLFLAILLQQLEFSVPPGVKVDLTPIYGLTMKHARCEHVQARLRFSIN

Pancreatic islet [6] = test: Induction of insulin secretion in human pancreatic islets at 1 uM in presence of glucose; format: functional, cell-based
Rattus norvegicus [7] = test: Antidiabetic activity in fasted Sprague-Dawley rat assessed as reduction in blood glucose level at 3 to 30 mg/kg, po administered 3 hrs prior to glucose challenge measured up to 2 hrs by OGTT; format: functional, organism-based
Cytochrome P450 3A4 = Cytochrome P450 3A4 (Homo sapiens, UniProt P08684); test: Inhibition of recombinant CYP3A4 (unknown origin); format: ADME
[8] = Cmax in rat at 10 mg/kg; format: ADME, organism-based; set-up: dose 10 mg/kg; conditions: in vivo
[9] = Stability in human liver microsomes; format: ADME, Microsome
[10] = biological target: cAMP and cAMP-inhibited cGMP 3',5'-cyclic phosphodiesterase 10A (Homo sapiens, UniProt Q9Y233); test: Inhibition of human recombinant full length PDE10A expressed in sf9 cells by scintillation proximity assay
Homo sapiens [11] = species on record: Homo sapiens; test: Selectivity ratio of IC50 for human PDE4D to IC50 for human recombinant full length PDE10A expressed in sf9 cells
[12] = Oral bioavailability in rat at 10 mg/kg; format: ADME, organism-based; conditions: in vivo
[13] = biological target: Dual specificity calcium/calmodulin-dependent 3',5'-cyclic nucleotide phosphodiesterase 1B (Homo sapiens, UniProt Q01064); test: Inhibition of human PDE1B
[14] = Stability in cynomolgus monkey liver microsomes; format: ADME, Macaca fascicularis, Microsome
Cytochrome P450 2C19 = Cytochrome P450 2C19 (Homo sapiens, UniProt P33261); test: Inhibition of recombinant CYP2C19 (unknown origin); format: ADME
[15] = biological target: cGMP-dependent 3',5'-cyclic phosphodiesterase (Homo sapiens, UniProt O00408); test: Inhibition of human PDE2A
Cytochrome P450 2C9 = Cytochrome P450 2C9 (Homo sapiens, UniProt P11712); test: Inhibition of recombinant CYP2C9 (unknown origin); format: ADME
Homo sapiens [16] = species on record: Homo sapiens; test: Selectivity ratio of IC50 for human PDE7A to IC50 for human recombinant full length PDE10A expressed in sf9 cells
[17] = biological target: High affinity cGMP-specific 3',5'-cyclic phosphodiesterase 9A (Homo sapiens, UniProt O76083); test: Inhibition of human PDE9A
Homo sapiens [18] = species on record: Homo sapiens; test: Selectivity ratio of IC50 for human PDE5A to IC50 for human recombinant full length PDE10A expressed in sf9 cells
[19] = biological target: cGMP-inhibited 3',5'-cyclic phosphodiesterase 3B (Homo sapiens, UniProt Q13370); test: Inhibition of human PDE3B
[20] = biological target: High affinity 3',5'-cyclic-AMP phosphodiesterase 7A (Homo sapiens, UniProt Q13946); test: Inhibition of human PDE7A
Cytochrome P450 2D6 = Cytochrome P450 2D6 (Homo sapiens, UniProt P10635); test: Inhibition of recombinant CYP2D6 (unknown origin); format: ADME
Rattus norvegicus [21] = species on record: Rattus norvegicus; test: Induction of insulin secretion in rat pancreatic islets at 0.1 to 3 uM in presence of 3 mM glucose; format: functional
[22] = Volume of distribution in steady state in rat at 10 mg/kg; format: ADME, organism-based; conditions: in vivo, read-out: Vdss
[23] = Stability in mouse liver microsomes; format: ADME, Microsome
Homo sapiens [24] = species on record: Homo sapiens; test: Selectivity ratio of IC50 for human PDE9A to IC50 for human recombinant full length PDE10A expressed in sf9 cells
[25] = biological target: Voltage-gated inwardly rectifying potassium channel KCNH2 (Homo sapiens, UniProt Q12809); test: Inhibition of human ERG
[26] = Stability in rat liver microsomes; format: ADME, Microsome
[27] = biological target: cGMP-specific 3',5'-cyclic phosphodiesterase (Homo sapiens, UniProt O76074); test: Inhibition of human PDE5A
[28] = Stability in dog liver microsomes; format: ADME, Canis lupus familiaris, Microsome
Homo sapiens [29] = species on record: Homo sapiens; test: Selectivity ratio of IC50 for human PDE3B to IC50 for human recombinant full length PDE10A expressed in sf9 cells
[30] = biological target: 3',5'-cyclic-AMP phosphodiesterase 4D (Homo sapiens, UniProt Q08499); test: Inhibition of human PDE4D
Homo sapiens [31] = species on record: Homo sapiens; test: Selectivity ratio of IC50 for human PDE2A to IC50 for human recombinant full length PDE10A expressed in sf9 cells
[32] = Half life in rat at 10 mg/kg, iv; format: ADME, organism-based; conditions: in vivo
[33] = Ratio of drug level in brain to plasma (unknown origin) after 2 hrs; format: ADME; conditions: brain and plasma; read-out: BPR
Pancreatic islet [34] = test: Induction of insulin secretion in human pancreatic islets at 15 mM in presence of glucose; format: functional, cell-based
Pancreatic islet [35] = test: Induction of insulin secretion in human pancreatic islets at 2 to 12 mM; format: functional, cell-based
Pancreatic islet [36] = test: Induction of insulin secretion in human pancreatic islets at 30 mM in presence of glucose; format: functional, cell-based

Sequence of cAMP and cAMP-inhibited cGMP 3',5'-cyclic phosphodiesterase 10A (Q9Y233 whole entry): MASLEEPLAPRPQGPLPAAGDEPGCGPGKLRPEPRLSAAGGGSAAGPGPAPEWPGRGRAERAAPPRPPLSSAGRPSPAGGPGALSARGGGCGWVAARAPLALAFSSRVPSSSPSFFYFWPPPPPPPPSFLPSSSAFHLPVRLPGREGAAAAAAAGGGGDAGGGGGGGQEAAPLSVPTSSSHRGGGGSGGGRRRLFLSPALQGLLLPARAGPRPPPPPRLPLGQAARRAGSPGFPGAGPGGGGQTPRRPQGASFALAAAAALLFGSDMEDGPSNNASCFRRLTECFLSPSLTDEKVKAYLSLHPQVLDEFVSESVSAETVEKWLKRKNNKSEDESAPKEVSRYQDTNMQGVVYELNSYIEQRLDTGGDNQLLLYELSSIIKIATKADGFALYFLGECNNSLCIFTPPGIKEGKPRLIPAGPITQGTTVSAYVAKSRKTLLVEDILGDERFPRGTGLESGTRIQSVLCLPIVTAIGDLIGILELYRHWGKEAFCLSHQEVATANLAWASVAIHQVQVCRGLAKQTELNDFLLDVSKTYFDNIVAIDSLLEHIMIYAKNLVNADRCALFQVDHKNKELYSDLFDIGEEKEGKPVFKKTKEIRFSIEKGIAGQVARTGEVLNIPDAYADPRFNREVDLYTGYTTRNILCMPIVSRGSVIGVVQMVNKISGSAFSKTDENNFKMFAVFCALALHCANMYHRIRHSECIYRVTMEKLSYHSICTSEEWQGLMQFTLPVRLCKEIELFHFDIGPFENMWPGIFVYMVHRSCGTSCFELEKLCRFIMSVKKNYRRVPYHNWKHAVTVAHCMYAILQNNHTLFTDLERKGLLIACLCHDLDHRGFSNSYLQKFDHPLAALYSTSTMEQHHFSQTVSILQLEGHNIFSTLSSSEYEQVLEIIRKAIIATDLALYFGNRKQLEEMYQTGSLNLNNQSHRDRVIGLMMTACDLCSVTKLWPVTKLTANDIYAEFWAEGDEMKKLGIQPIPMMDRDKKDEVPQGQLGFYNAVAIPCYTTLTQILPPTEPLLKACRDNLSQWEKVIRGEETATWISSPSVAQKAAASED
Sequence of Dual specificity calcium/calmodulin-dependent 3',5'-cyclic nucleotide phosphodiesterase 1B (Q01064 whole entry): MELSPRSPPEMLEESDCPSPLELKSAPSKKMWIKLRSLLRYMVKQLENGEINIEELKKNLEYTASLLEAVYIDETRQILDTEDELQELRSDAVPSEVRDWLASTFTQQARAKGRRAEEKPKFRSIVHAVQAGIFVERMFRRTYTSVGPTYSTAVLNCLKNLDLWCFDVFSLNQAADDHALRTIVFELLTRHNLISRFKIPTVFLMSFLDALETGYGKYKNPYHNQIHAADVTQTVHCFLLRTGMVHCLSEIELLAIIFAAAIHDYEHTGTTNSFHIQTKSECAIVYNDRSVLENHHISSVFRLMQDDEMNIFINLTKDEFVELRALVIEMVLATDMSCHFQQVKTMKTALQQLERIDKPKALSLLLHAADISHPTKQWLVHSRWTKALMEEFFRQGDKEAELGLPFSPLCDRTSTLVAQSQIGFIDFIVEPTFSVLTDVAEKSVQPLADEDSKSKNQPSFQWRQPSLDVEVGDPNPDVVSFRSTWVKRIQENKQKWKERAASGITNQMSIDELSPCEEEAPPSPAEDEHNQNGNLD
Sequence of 3',5'-cyclic-AMP phosphodiesterase 4D (Q08499 whole entry): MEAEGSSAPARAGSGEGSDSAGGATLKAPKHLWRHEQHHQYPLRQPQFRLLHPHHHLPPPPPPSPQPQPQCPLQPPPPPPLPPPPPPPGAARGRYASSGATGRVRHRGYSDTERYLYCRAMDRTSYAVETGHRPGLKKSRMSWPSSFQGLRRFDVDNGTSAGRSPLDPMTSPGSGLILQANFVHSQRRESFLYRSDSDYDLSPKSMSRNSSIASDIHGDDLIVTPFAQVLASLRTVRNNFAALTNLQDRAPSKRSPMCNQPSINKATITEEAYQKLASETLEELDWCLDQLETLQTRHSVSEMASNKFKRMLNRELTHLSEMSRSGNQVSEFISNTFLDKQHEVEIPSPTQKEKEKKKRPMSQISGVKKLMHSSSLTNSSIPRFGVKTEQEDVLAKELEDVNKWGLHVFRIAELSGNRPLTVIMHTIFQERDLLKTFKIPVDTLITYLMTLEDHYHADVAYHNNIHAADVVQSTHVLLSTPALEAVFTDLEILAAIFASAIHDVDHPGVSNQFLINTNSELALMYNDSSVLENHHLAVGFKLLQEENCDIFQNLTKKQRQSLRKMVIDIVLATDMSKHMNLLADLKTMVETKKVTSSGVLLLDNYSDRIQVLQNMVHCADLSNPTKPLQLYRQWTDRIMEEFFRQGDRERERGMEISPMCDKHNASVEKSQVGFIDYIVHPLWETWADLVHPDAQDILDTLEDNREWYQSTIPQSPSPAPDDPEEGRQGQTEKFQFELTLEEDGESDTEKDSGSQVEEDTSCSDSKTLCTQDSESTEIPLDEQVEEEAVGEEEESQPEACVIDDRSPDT
Sequence of Cytochrome P450 2C9 (P11712 whole entry): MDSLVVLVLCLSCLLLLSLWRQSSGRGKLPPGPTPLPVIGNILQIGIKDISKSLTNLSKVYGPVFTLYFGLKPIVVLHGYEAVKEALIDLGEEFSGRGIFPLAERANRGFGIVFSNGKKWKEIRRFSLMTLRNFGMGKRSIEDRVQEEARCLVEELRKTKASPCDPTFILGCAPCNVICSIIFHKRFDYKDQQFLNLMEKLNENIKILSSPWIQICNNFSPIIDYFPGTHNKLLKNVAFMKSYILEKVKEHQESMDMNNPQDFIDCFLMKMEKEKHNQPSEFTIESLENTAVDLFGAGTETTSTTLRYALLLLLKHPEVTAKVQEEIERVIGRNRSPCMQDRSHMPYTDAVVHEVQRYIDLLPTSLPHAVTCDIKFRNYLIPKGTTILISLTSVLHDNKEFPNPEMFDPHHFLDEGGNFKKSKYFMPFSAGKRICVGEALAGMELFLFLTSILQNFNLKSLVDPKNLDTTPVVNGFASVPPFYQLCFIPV
Sequence of Cytochrome P450 2D6 (P10635 whole entry): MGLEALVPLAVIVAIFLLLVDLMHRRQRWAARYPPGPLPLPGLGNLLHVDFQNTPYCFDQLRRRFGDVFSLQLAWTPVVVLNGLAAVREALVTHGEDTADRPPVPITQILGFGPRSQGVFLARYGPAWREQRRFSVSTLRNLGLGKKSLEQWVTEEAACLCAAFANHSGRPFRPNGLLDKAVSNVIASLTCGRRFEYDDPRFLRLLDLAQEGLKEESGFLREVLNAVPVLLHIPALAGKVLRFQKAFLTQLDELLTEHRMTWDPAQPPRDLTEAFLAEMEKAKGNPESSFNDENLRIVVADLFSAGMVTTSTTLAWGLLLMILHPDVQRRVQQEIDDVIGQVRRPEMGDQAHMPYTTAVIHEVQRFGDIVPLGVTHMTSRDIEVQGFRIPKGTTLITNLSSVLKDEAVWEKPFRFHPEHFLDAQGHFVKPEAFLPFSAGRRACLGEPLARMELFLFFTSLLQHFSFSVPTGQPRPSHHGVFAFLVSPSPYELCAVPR
Sequence of High affinity 3',5'-cyclic-AMP phosphodiesterase 7A (Q13946 whole entry): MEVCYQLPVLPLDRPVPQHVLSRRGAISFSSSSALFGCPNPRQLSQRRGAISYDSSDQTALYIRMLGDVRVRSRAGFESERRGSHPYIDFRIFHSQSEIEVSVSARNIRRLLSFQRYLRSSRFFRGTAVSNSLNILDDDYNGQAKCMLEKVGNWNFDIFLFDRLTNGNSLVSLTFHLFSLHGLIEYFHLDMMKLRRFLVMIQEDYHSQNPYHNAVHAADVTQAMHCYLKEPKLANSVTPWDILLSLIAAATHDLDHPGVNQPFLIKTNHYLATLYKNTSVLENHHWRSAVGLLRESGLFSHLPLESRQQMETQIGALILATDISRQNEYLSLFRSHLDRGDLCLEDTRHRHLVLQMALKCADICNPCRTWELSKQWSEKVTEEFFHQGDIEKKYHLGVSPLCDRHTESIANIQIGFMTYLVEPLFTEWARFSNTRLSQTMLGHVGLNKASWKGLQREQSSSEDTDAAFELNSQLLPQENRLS
Sequence of High affinity cGMP-specific 3',5'-cyclic phosphodiesterase 9A (O76083 whole entry): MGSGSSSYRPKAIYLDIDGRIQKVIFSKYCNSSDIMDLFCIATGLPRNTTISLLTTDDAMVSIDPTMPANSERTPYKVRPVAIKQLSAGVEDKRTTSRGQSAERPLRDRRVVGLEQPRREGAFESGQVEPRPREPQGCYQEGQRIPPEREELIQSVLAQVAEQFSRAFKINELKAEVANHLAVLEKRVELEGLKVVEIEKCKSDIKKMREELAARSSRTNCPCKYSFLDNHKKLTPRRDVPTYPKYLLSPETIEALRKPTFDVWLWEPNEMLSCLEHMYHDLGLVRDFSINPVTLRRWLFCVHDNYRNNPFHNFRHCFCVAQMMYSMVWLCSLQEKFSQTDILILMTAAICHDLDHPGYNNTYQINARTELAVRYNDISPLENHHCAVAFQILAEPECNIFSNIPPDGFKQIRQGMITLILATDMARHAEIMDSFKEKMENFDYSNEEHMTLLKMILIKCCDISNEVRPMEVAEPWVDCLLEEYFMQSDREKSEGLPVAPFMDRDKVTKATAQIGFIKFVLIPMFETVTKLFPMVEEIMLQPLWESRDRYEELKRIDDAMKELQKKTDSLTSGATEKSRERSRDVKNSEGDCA
Sequence of Cytochrome P450 2C19 (P33261 whole entry): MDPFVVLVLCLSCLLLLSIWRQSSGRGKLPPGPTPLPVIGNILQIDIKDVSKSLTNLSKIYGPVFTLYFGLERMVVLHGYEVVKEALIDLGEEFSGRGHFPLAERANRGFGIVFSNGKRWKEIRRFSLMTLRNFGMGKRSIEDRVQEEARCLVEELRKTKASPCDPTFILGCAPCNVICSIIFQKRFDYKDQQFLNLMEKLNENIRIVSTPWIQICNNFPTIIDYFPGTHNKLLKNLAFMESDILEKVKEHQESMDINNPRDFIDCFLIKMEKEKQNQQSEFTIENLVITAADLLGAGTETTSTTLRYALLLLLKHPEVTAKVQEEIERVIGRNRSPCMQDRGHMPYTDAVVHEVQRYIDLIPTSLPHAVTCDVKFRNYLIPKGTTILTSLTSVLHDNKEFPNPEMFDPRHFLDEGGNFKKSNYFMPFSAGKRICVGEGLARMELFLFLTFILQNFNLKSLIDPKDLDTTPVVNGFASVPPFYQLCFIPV

For `O=C(O)c1ccc(-c2c(/C=C/c3ccc4ccccc4n3)nc3c(N4CCOCC4)ccnn23)cc1`, the Activity (Rattus norvegicus [1]) was “inactive”, the Activity [2] was “Non-Toxic” and the IC50 [3] was 3000 nM. For the same molecule, the Activity (Mus musculus) was “inactive”, the Ratio IC50 (Homo sapiens [4]) was 200 and the clearance [5] was 3.3 mL/min/kg. The IC50 (Cytochrome P450 1A2) was greater than 10000 nM, the Activity (Pancreatic islet [6]) was “Active” and the Activity (Rattus norvegicus [7]) was “inactive”. The IC50 (Cytochrome P450 3A4) was greater than 10000 nM, the Cmax [8] was 2990 ng/mL and the Stability [9] was “Stable”. It also gave an IC50 [10] of 1.5 to 2 nM, a Ratio IC50 (Homo sapiens [11]) of 200 and a bioavailability [12] of 44%. The IC50 [13] was 6600 nM, the Stability [14] was “Stable” and the IC50 (Cytochrome P450 2C19) was greater than 10000 nM. The IC50 [15] was 5900 nM, the IC50 (Cytochrome P450 2C9) was greater than 10000 nM and the Ratio IC50 (Homo sapiens [16]) was 200. The IC50 [17] was greater than 10000 nM, the Ratio IC50 (Homo sapiens [18]) was 200 and the IC50 [19] was 6600 nM. The IC50 [20] was 4200 nM, the IC50 (Cytochrome P450 2D6) was greater than 10000 nM and the Activity (Rattus norvegicus [21]) was “inactive”. The Vd [22] was 0.47 L/kg, the Stability [23] was “Stable” and the Ratio IC50 (Homo sapiens [24]) was 200. For the same molecule, the “inhibition (INH)” value [25] was “Not Active”, the Stability [26] was “Stable” and the IC50 [27] was 5400 nM. For the same molecule, the Stability [28] was “Stable”, the Ratio IC50 (Homo sapiens [29]) was 200 and the IC50 [30] was 4000 nM. For the same molecule, the Ratio IC50 (Homo sapiens [31]) was 200 and the half-life [32] was 6 to 6.1 h.

Work on `CS(=O)(=O)NC(=O)c1ccc(-c2c(C#Cc3ccc4ccccc4n3)nc3c(N4CCOCC4)ccnn23)cn1` yielded an IC50 [10] of 2.1 nM and a Kp at 2 h [33] of 0.01.

With `O=C(O)C1CCN(c2ccc(-c3c(/C=C/c4ccc5ccccc5n4)nc4c(N5CCOCC5)ccnn34)cc2)CC1` the IC50 [10] was 4.4 nM and the Kp at 2 h [33] was 0.02.

For `CC(=O)NS(=O)(=O)c1ccc(-c2c(/C=C/c3ccc4ccccc4n3)nc3c(N4CCOCC4)ccnn23)cc1`, the IC50 [10] was 2.2 nM.

In the case of `O=C(O)c1ccc(-c2c([C@H]3C[C@H](c4ccc5ccccc5n4)C3)nc3c(N4CCOCC4)ccnn23)cc1`, the IC50 [10] is reported as 0.6 nM.

With `N=C(N)NCCC[C@H](N)C(=O)O` the Activity (Pancreatic islet [34]) was “Active”.

In the case of `OC[C@H]1OC(O)[C@H](O)[C@@H](O)[C@@H]1O` (stereo partly specified), the Activity (Pancreatic islet [35]) is reported as “Active”.

In the case of `O=C(O)CCc1ccc(-c2c([C@H]3C[C@H](c4ccc5ccccc5n4)C3)nc3c(N4CCOCC4)ccnn23)cc1`, the IC50 [10] is reported as 2.4 nM.

`O=C(O)C1CCN(c2ccc(-c3c([C@H]4C[C@H](c5ccc6ccccc6n5)C4)nc4c(N5CCOCC5)ccnn34)cc2)CC1` gave an IC50 [10] of 3.2 nM and a Kp at 2 h [33] of 0.02.

`c1ccc2nc(Cc3nc4c(N5CCOCC5)ccnn4c3-c3ccc(N4CCNCC4)nc3)ccc2c1` showed an IC50 [10] of 123 nM and a Kp at 2 h [33] of 0.45.

`Oc1ncn(-c2ccc(-c3c(/C=C/c4ccc5ccccc5n4)nc4c(N5CCOCC5)ccnn34)cc2)n1` gave an IC50 [10] of 7.4 nM.

Molecule `c1ccc2nc(SCc3nc4c(N5CCOCC5)ccnn4c3-c3ccc(N4CCNCC4)nc3)ccc2c1` has a Kp at 2 h [33] of 0.82.

`O=c1[nH]c(-c2ccc(-c3c(/C=C/c4ccc5ccccc5n4)nc4c(N5CCOCC5)ccnn34)cc2)no1` gave an IC50 [10] of 3.3 nM.

Molecule `NS(=O)(=O)N1CCN(c2c(CSc3ccc4ccccc4n3)nc3c(N4CCOCC4)ccnn23)CC1` has an IC50 [10] of 13.8 nM and a Kp at 2 h [33] of 0.31.

In the case of `COc1ccc(Cl)cc1C(=O)NCCc1ccc(S(=O)(=O)NC(=O)NC2CCCCC2)cc1`, the Activity (Pancreatic islet [6]) is reported as “Active”.

Molecule `O=C(O)c1ccc(-c2c(CCc3ccc4ccccc4n3)nc3c(N4CCOCC4)ccnn23)cc1` has an IC50 [10] of 1.2 nM.

For `Oc1nc(O)c(-c2ccc(-c3c(/C=C/c4ccc5ccccc5n4)nc4c(N5CCOCC5)ccnn34)cc2)o1`, the IC50 [10] was 8.5 nM and the Kp at 2 h [33] was 0.01.

For `[Cl-].[K+]`, the Activity (Pancreatic islet [36]) was “Active”.
